# Test results published in patent publication EP0181109B1, “N6-benzopyrano- and benzothiopyrano-adenosines” (WARNER-LAMBERT COMPANY, priority 1984, dated 1986).
# How the values were obtained:
# spontaneous locomotion = assay: Mouse Activity and Screen Test Procedure (MAST): locomotor activity in actophotometer; type: in vivo, Swiss-Webster male mice; details: one hour prior to testing
# Procedure: (§1) Nine unfasted Swiss-Webster male mice weighing 20-30 g are equally divided into three groups for each drug dose to be tested. There is, data for each dose level was generated by three separate groups of three mice each.
# (§2) A minimum of three dose levels (10, 30, and 100 mg/kg) are tested for each drug. Treatments are administered intraperitoneally one hour prior to testing. All dosages are calculated as parent compound and given in volumes of 10 ml/kg. Compounds are dissolved or suspended in 0.2% Methocel. Control animals are injected with Methocel.
# The actophotometer consists of a cylindrical chamber whose center is occupied by another cylinder which contains the illumination for six photocells located on the perimeter of the chamber. Six light-beam interruptions equal one count. Locomotor activity is recorded by computer at ten minute intervals for 60 minutes.
# Data: The data obtained from the screen test are expressed as percent of mice falling off the screen. Data derived from locomotor activity of drug treated mice are compared to the activity of vehicle treated animals and are expressed as percent inhibition of spontaneous locomotion. All percentages reported for inhibition of locomotion (LI) are based upon data accumulated for one hour. […] An overall dose rating is obtained by the following criteria:
# LAD refers to the lowest dose at which an A rating is achieved. […] The compounds are identified in the Examples.
# adenosine A2 receptor = target: T1, adenosine A2 receptor (Rattus norvegicus, UniProt P30543); assay: Adenosine Receptor Binding - A2 Receptor Affinity (RBA2), [3H]NECA displacement in striatal membranes; details: 4 nM [3H]NECA, 50 nM N6-cyclopentyladenosine, 60 minutes at 25°C, read-out: RBA-2 (IC50, A2 receptor affinity)
# T1 construct: Brains were thawed and then kept on ice while the striata were dissected out; tissue Pel-Freez (Rogers, Arkansas); host or cells: rat striatum (membranes)
# T1 sequence (P30543 whole entry): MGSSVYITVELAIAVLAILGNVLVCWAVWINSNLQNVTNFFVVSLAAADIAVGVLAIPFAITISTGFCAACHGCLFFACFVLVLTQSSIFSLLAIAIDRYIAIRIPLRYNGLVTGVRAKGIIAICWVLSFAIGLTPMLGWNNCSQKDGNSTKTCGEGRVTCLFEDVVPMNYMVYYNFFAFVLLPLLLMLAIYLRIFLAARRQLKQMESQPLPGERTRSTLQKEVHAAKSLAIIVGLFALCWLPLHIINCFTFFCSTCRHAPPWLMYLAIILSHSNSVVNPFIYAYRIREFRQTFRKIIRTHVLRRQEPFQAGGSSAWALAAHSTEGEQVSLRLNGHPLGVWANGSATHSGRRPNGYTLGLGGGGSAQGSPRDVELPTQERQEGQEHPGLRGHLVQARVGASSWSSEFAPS
# Procedure: Brains from 200-500 g mixed sex Sprague-Dawley rats were purchased from Pel-Freez (Rogers, Arkansas). Fresh brains from male Long-Evans hooded rats (Blue Spruce Farms, Altamont, NY) gave essentially identical results. Brains were thawed and then kept on ice while the striata were dissected out. Striata were disrupted in 10 vol of ice-cold 50 mM Tris·HCl (pH 7.7 at 25°C, pH 8.26 at 5°C) (Tris) for 30 seconds in a Polytron PT―10 (Brinkmann) at setting 5. The suspension was centrifuged at 50,000 xg for ten minutes, the supernatant discarded, the pellet resuspended in 10 vol ice-cold Tris as above, recentrifuged, resuspended at 1 g/5 ml, and stored in plastic vials at -70°C (stable for at least six months). When needed, tissue was thawed at room temperature, disrupted in a Polytron, and kept on ice until used.
# All incubations were for 60 minutes at 25°C in 12 x 75 mm glass tubes containing 1 ml Tris with 5 mg original tissue weight of rat weight of rat striatal membranes, 4 nM [^3H]-N-ethyl adenosine-5'-carboxamide ([^3H]NECA), 50 nM N^s-cyclopentyladenosine (to eliminate A1 receptor binding), 10 mM MgCI2, 0.1 units/ml of adenosine deaminase and 1% dimethylsulfoxide. N^6-Cyclopentyladenosine was dissolved at 10 mM in 0.02 N HCI and diluted in Tris. Stock solutions and dilutions of N^6-cyclopentyladenosine could be stored at -20°C for several months. Test compounds were dissolved at 10 mM in dimethylsulfoxide on the same day as the experiment, and diluted in dimethylsulfoxide to 100x the final incubation concentration. Control incubations received an equal volume (10 µl) of dimethylsulfoxide; the resulting concentration of dimethylsulfoxide had no effect on binding. [^3H]NECA was diluted to 40 nM in Tris. The membrane suspension (5 mg/0.79 ml) contained sufficient MgC12 and adenosine deaminase to give 10 mM and 0.1 units/ml, respectively, final concentration in the incubation. […] After all additions, the rack of tubes was vortexed, and the tubes were then incubated for 60 min at 25°C in a shaking water bath. The rack of tubes was vortexed an additional time halfway through the incubation.
# Incubations were terminated by filtration through 2.4 cm GF/B filters under reduced pressure. Each tube was filtered as follows: the contents of the tube were poured onto the filter, 4 ml of ice-cold Tris were added to the tube and the contents poured onto the filter, and the filter was washed twice with 4 ml of ice-cold Tris. The filtration was complete in about 12 seconds. Filters were put in scintillation vials, 8 ml of Formula 947 scintillation fluid added, and the vials left overnight, shaken, and counted in a liquid scintillation counter at 40% efficiency.
# Nonspecific binding was defined as binding in the presence of […] N^6-cyclopentyladenosine, and specific binding was defined as total binding minus nonspecific binding. The IC50 was calculated by weighted nonlinear least squares curve-fitting to the mass action equation. [formula] • where Y is cpm bound • T is cpm total binding without drug • S is cpm specific binding without drug • D is the concentration of drug • and K is the IC50 of the drug Weighting factors were calculated under the assumption that the standard deviation was proportional to the predicted value of Y. Nonspecific binding was treated as a very large (infinite) concentration of drug in the computer analysis.
# [1] = tested on: mice falling off the inverted screen; assay: Mouse Activity and Screen Test Procedure (MAST): screen test (ST); type: in vivo, Swiss-Webster male mice; details: one hour postinjection, percent of mice falling off the screen
# Source text: The compounds of the invention are new chemical substances which are useful as pharmaceutical agents for the treatment of psychoses. The antipsychotic activity of representative compounds of the invention was established by the Mouse Activity and Screen Test Procedure (MAST) described below.
# as §1, §2
# Testing: A two part testing procedure is started one hour postinjection. First, the screen test (ST) is performed (see Pharmac. Biochem. Behav. 6,351-353,1977). Briefly this test consists of placing mice on individual wire screens which are then rotated 180 degrees at the start of a 60 second observation period. The number of mice falling off the inverted screen is recorded.
# Data: The data obtained from the screen test are expressed as percent of mice falling off the screen. Data derived from locomotor activity of drug treated mice are compared to the activity of vehicle treated animals and are expressed as percent inhibition of spontaneous locomotion. All percentages reported for inhibition of locomotion (LI) are based upon data accumulated for one hour. Both phases of testing are graded: A=60-100%; C=31-59%; and N=0-30%. An overall dose rating is obtained by the following criteria:
# LAD refers to the lowest dose at which an A rating is achieved. […] Utilizing this procedure, an overall dose rating of A was obtained for the noted compound at the indicated dose. The compounds are identified in the Examples.
SMILES,Inhibition of Mouse Locomotion Activity (spontaneous locomotion; 1 mg/kg intraperitoneally),Inhibition of Mouse Locomotion Activity (spontaneous locomotion; 3 mg/kg intraperitoneally),Inhibition of Mouse Locomotion Activity (spontaneous locomotion; 10 mg/kg intraperitoneally),Inhibition of Mouse Locomotion Activity (spontaneous locomotion; 30 mg/kg intraperitoneally),IC50 (adenosine A2 receptor),Screen Test Failure ([1]; 1 mg/kg intraperitoneally),Screen Test Failure ([1]; 3 mg/kg intraperitoneally),Screen Test Failure ([1]; 10 mg/kg intraperitoneally),Screen Test Failure ([1]; 30 mg/kg intraperitoneally),Inhibition of Mouse Locomotion Activity (spontaneous locomotion; 100 mg/kg intraperitoneally),Screen Test Failure ([1]; 100 mg/kg intraperitoneally),Inhibition of Mouse Locomotion Activity (spontaneous locomotion; 0.3 mg/kg intraperitoneally),Inhibition of Mouse Locomotion Activity (spontaneous locomotion; 9.0 mg/kg intraperitoneally),Screen Test Failure ([1]; 0.3 mg/kg intraperitoneally),Screen Test Failure ([1]; 9.0 mg/kg intraperitoneally)
COc1ccc2c(c1)OCC(Nc1ncnc3c1ncn3[C@@H]1O[C@H](CO)[C@@H](O)[C@H]1O)C2 (some centres unmarked) [Example 3],25%,58%,89%,97%,1360 nM,0%,0%,22%,22%,,,,,,
COc1cc(OC)c2c(c1)OC(C)(C)CC2Nc1ncnc2c1ncn2[C@@H]1O[C@H](CO)[C@@H](O)[C@H]1O (some centres unmarked) [Example 14],,,8%,13%,37900 nM,,,0%,0%,2%,0%,,,,
"CC(C)(C)c1ccc2c(c1)OCC(Nc1ncnc3c1ncn3[C@@H]1O[C@H](CO)[C@@H](O)[C@H]1O)C2 (some centres unmarked) [Example 13, N^6-[7-t-Butyl-3-chromanylamino)adenosine]",,,50%,82%,2940 nM,,,0%,0%,88%,22%,,,,
Cc1ccc2c(c1C)OC(C)C(Nc1ncnc3c1ncn3[C@@H]1O[C@H](CO)[C@@H](O)[C@H]1O)C2 (some centres unmarked) [Example 11],13%,27%,90%,95%,360 nM,0%,0%,11%,22%,99%,67%,,,,
"Cc1cc2c(cc1C)OCC(Nc1ncnc3c1ncn3[C@@H]1O[C@H](CO)[C@@H](O)[C@H]1O)C2 (some centres unmarked) [Example 9, N^6-[6,7-Dimethyl-3-chromanylamino]adenosine]",11%,34%,77%,96%,1240 nM,0%,0%,22%,44%,97%,77%,,,,
"O=S1(=O)CCC(Nc2ncnc3c2ncn3[C@@H]2O[C@H](CO)[C@@H](O)[C@H]2O)c2ccccc21 (some centres unmarked) [Example 16, N^6-[4-Benzothiopyran-1,1-dioxideamino]adenosine]",,15%,69%,98%,1390 nM,,0%,22%,55%,,,,,,
COc1ccc2c(c1)CC(Nc1ncnc3c1ncn3[C@@H]1O[C@H](CO)[C@@H](O)[C@H]1O)CO2 (some centres unmarked) [Example 6],45%,77%,98%,98%,1090 nM,0%,0%,77%,99%,100%,99%,,,,
"OC[C@H]1O[C@@H](n2cnc3c(NC4COc5ccccc5C4)ncnc32)[C@H](O)[C@@H]1O (some centres unmarked) [Example 4, N^6-[3-Chromanylamino]adenosine]",36%,87%,94%,99%,610 nM,22%,11%,11%,100%,98%,88%,,,,
OC[C@H]1O[C@@H](n2cnc3c(NC4COc5c(Cl)cccc5C4)ncnc32)[C@H](O)[C@@H]1O (some centres unmarked) [Example 5],-14%,30%,89%,97%,210 nM,0%,0%,22%,55%,99%,44%,,,,
"C[C@H]1Oc2ccccc2C[C@@H]1Nc1ncnc2c1ncn2[C@@H]1O[C@H](CO)[C@@H](O)[C@H]1O (relative stereo) [Example 8, N^l-[trans-2-Methyl,-3-chromanylamino]adenosine]",52%,84%,95%,98%,490 nM,0%,11%,0%,11%,99%,33%,,,,
"CC1Oc2ccccc2CC1Nc1ncnc2c1ncn2C1OC(CO)C(O)C1O (stereo not drawn) [Example 7, N^6-[cis-2-Methyl-3-chromanylamino]adenosine]",57%,95%,,93%,1840 nM,0%,22%,,100%,,,6%,96%,0%,55%
